Assays:
[1] = tested on: mTORC1 (phosphorylation of p70S6K and 4E-BP1) in HeLa cells; test: Western blot of mTORC1 activity; format: cell-based, human; details: 2.47 and 5.48 μM
Method: In vitro mTOR kinase assay confirmed that 17 did inhibit mTOR kinase activity (Table 1). The mTOR pathway is frequently activated in human cancers (e.g., HeLa and MCF-7). To assure compound 17 inhibits the mTOR pathway inside the cell, western blotting was employed to check the activity of mTORC1 (Complex 1) and mTORC2 (Complex 2). HeLa cell line was selected for western blot analysis after treatment with compound 17 at 2.47 and 5.48 μM; detailed results are shown in Fig. 8.
mTORC1 activity was evaluated by determining the phosphorylation level of its targets, p70S6K and 4E-BP1, in the HeLa cell line. […] Quantitative of the phosphorylation levels of p70SK6 and 4E-BP1 are […] with the concentration of 17 (Fig. 8).
HeLa cells were cultured in a six-well plate in the presence of compound 17 for 48 h. Samples were prepared by lysing PBS-washed cells with RIPA buffer (Beyotime, Haimen, China) consisting of 1% Nonidet P-40, 0.5% sodium deoxycholate, 0.1% SDS, and 50 mM Tris-HCl, pH 7.4, supplemented with NaF, NaVO4, EDTA and a protease inhibitor cocktail (Roche). Proteins were subjected to SDS-PAGE gel electrophoresis and transferred onto a polyvinylidene difluoride membrane (Hybond-P; GE Healthcare Life Sciences, Piscataway, NJ). […] The densitometry of each band was quantified by FluorChem 8000 (AlphaInnotech, San Leandro, CA).

[2] = biological target: PIK3C2B (PI3K-C2 beta) (Homo sapiens, UniProt O00750); test: SelectScreen kinase profiling; format: biochemical; details: mean ± SD of triplicate
Excerpt: (§1) To characterize the kinase selectivity of compound 17, we profiled its ability to bind to a panel of 24 structurally related kinases using the SelectScreen Kinase Profiling Service (Life Technologies Corporation, Madison, WI).

[3] = biological target: PIK3CD/PIK3R1 (p110 delta/p85 alpha) (Homo sapiens, UniProt O00329); test: SelectScreen kinase profiling; format: biochemical; details: mean ± SD of triplicate
Excerpt: as §1

[4] = biological target: AKT2 (PKB beta) (Homo sapiens, UniProt P31751); test: SelectScreen kinase profiling; format: biochemical; details: mean ± SD of triplicate
Excerpt: as §1

[5] = biological target: PIK3CG (p110 gamma) (Homo sapiens, UniProt P48736); test: SelectScreen kinase profiling; format: biochemical; details: mean ± SD of triplicate
Excerpt: as §1

[6] = biological target: PRKCB2 (PKC beta II) (Homo sapiens, UniProt P05771); test: SelectScreen kinase profiling; format: biochemical; details: mean ± SD of triplicate
Excerpt: as §1

[7] = biological target: AKT1 (PKB alpha) (Homo sapiens, UniProt P31749); test: SelectScreen kinase profiling; format: biochemical; details: mean ± SD of triplicate
Excerpt: as §1

[8] = biological target: FRAP1 (mTOR) (Homo sapiens, UniProt P42345); test: SelectScreen kinase profiling; format: biochemical; details: mean ± SD of triplicate
Excerpt: as §1

[9] = biological target: PRKCD (PKC delta) (Homo sapiens, UniProt Q05655); test: SelectScreen kinase profiling; format: biochemical; details: mean ± SD of triplicate
Excerpt: as §1

[10] = biological target: AKT3 (PKB gamma) (Homo sapiens, UniProt Q9Y243); test: SelectScreen kinase profiling; format: biochemical; details: mean ± SD of triplicate
Excerpt: as §1

[11] = biological target: IKBKB (IKK beta) (Homo sapiens, UniProt O14920); test: SelectScreen kinase profiling; format: biochemical; details: mean ± SD of triplicate
Excerpt: as §1

[12] = biological target: AMPK A1/B1/G1 (Homo sapiens, UniProt Q13131); test: SelectScreen kinase profiling; format: biochemical; details: mean ± SD of triplicate
Excerpt: as §1

[13] = biological target: PDK1 (Homo sapiens, UniProt O15530); test: SelectScreen kinase profiling; format: biochemical; details: mean ± SD of triplicate
Excerpt: as §1

[14] = biological target: CDK2/cyclin A (Homo sapiens, UniProt P24941); test: SelectScreen kinase profiling; format: biochemical; details: mean ± SD of triplicate
Excerpt: as §1

[15] = biological target: PI4KB (PI4K beta) (Homo sapiens, UniProt Q9UBF8); test: SelectScreen kinase profiling; format: biochemical; details: mean ± SD of triplicate
Excerpt: as §1

[16] = biological target: PIK3C2A (PI3K-C2 alpha) (Homo sapiens, UniProt O00443); test: SelectScreen kinase profiling; format: biochemical; details: mean ± SD of triplicate
Excerpt: as §1

[17] = biological target: MARK1 (MARK) (Homo sapiens, UniProt Q9P0L2); test: SelectScreen kinase profiling; format: biochemical; details: mean ± SD of triplicate
Excerpt: as §1

[18] = biological target: PIK3CA/PIK3R1 (p110 alpha/p85 alpha) (Homo sapiens, UniProt P42336); test: SelectScreen kinase profiling; format: biochemical; details: mean ± SD of triplicate
Excerpt: as §1

[19] = biological target: RPS6KB1 (p70S6K) (Homo sapiens, UniProt P23443); test: SelectScreen kinase profiling; format: biochemical; details: mean ± SD of triplicate
Excerpt: as §1

[20] = biological target: AMPK A2/B1/G1 (Homo sapiens, UniProt P54646); test: SelectScreen kinase profiling; format: biochemical; details: mean ± SD of triplicate
Excerpt: as §1

[21] = biological target: PIK3C3 (hVPS34) (Homo sapiens, UniProt Q8NEB9); test: SelectScreen kinase profiling; format: biochemical; details: mean ± SD of triplicate
Excerpt: as §1

[22] = biological target: DNA-PK (Homo sapiens, UniProt P78527); test: SelectScreen kinase profiling; format: biochemical; details: mean ± SD of triplicate
Excerpt: as §1

[23] = biological target: PRKCA (PKC alpha) (Homo sapiens, UniProt P17252); test: SelectScreen kinase profiling; format: biochemical; details: mean ± SD of triplicate
Excerpt: as §1

[24] = biological target: PRKCB1 (PKC beta I) (Homo sapiens, UniProt P05771); test: SelectScreen kinase profiling; format: biochemical; details: mean ± SD of triplicate
Excerpt: as §1

[25] = biological target: CDK1/cyclin B (Homo sapiens, UniProt P06493); test: SelectScreen kinase profiling; format: biochemical; details: mean ± SD of triplicate
Excerpt: as §1

Chain of AKT1 (PKB alpha) (P31749 whole entry): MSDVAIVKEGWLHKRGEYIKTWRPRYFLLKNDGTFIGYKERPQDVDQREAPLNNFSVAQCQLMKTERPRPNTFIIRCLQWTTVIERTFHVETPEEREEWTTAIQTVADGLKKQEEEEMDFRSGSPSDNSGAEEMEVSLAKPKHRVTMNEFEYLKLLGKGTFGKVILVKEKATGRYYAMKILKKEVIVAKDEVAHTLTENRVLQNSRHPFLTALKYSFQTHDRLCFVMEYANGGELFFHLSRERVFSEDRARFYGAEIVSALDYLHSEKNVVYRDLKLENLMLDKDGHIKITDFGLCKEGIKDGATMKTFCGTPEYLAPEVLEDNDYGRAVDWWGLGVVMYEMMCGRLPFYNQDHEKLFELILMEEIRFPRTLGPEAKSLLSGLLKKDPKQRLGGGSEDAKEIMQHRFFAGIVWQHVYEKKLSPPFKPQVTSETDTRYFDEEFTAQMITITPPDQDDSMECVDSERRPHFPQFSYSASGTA
Chain of PI4KB (PI4K beta) (Q9UBF8 whole entry): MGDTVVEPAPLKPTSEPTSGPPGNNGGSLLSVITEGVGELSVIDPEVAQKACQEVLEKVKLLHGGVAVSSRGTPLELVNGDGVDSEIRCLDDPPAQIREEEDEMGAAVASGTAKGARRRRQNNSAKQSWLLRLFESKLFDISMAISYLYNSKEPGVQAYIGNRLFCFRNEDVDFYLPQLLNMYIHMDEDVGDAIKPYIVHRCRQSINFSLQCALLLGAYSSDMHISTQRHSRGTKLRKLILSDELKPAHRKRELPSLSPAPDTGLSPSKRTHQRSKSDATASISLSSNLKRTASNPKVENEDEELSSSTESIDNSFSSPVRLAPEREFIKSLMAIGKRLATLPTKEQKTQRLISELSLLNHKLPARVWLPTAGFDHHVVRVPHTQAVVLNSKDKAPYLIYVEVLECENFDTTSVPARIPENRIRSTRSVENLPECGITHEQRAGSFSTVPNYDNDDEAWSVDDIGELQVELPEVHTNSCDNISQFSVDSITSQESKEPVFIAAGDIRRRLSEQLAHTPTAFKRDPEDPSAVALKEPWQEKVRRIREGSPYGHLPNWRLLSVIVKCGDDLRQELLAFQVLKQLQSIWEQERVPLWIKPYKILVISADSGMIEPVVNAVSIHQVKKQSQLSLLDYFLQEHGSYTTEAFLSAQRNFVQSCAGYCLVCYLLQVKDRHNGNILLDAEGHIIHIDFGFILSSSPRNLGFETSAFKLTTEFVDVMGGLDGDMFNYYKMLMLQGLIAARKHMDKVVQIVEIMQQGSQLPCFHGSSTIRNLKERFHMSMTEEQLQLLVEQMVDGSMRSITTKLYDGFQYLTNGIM
Chain of PIK3CA/PIK3R1 (p110 alpha/p85 alpha) (P42336 whole entry): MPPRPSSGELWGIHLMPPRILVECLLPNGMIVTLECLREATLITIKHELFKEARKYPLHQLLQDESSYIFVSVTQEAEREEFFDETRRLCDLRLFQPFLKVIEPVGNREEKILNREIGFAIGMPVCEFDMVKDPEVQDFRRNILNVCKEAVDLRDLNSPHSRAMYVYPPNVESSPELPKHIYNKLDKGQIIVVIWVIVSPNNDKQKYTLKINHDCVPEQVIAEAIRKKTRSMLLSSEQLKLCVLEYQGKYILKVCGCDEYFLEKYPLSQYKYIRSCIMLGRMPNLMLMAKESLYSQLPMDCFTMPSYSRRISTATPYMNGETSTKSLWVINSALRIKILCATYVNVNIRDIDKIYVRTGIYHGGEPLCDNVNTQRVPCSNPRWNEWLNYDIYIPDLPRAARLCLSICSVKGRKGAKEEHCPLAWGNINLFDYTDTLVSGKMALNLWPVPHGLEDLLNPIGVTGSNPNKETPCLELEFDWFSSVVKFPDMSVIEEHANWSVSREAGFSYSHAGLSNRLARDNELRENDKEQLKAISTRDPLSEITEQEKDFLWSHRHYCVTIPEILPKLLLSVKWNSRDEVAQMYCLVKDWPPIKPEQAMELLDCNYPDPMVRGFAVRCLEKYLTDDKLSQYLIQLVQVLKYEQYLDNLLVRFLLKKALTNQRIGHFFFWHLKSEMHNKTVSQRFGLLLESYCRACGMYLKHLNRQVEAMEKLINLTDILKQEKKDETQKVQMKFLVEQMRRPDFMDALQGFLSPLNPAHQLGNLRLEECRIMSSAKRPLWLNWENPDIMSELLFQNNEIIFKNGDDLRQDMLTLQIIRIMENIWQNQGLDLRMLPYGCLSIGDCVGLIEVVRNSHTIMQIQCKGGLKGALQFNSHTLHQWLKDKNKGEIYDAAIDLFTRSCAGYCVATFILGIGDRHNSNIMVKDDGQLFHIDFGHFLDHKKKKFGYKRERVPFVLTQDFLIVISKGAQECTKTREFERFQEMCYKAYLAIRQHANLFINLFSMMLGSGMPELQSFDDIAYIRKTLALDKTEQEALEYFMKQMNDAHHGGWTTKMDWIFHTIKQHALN
Chain of PIK3CA/PIK3R1 (p110 alpha/p85 alpha) (P27986 whole entry partner): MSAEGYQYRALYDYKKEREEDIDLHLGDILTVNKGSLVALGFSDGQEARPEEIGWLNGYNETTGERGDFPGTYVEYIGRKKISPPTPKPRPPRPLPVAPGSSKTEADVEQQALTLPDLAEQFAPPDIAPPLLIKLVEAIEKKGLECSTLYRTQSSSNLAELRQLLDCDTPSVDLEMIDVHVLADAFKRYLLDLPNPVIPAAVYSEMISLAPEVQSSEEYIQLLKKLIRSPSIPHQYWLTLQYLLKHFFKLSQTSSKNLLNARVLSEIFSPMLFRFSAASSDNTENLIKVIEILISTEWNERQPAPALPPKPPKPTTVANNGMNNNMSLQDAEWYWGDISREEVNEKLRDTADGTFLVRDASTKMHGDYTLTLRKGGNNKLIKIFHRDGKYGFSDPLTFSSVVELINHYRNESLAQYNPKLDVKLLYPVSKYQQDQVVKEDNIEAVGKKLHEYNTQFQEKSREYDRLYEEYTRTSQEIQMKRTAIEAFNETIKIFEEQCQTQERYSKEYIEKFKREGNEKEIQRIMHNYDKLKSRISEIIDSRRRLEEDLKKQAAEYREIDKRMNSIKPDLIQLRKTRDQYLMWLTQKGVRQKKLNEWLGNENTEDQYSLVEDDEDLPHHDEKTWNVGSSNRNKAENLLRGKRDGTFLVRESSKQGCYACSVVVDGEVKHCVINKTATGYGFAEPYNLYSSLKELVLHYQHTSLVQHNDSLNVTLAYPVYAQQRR
Chain of PIK3CG (p110 gamma) (P48736 whole entry): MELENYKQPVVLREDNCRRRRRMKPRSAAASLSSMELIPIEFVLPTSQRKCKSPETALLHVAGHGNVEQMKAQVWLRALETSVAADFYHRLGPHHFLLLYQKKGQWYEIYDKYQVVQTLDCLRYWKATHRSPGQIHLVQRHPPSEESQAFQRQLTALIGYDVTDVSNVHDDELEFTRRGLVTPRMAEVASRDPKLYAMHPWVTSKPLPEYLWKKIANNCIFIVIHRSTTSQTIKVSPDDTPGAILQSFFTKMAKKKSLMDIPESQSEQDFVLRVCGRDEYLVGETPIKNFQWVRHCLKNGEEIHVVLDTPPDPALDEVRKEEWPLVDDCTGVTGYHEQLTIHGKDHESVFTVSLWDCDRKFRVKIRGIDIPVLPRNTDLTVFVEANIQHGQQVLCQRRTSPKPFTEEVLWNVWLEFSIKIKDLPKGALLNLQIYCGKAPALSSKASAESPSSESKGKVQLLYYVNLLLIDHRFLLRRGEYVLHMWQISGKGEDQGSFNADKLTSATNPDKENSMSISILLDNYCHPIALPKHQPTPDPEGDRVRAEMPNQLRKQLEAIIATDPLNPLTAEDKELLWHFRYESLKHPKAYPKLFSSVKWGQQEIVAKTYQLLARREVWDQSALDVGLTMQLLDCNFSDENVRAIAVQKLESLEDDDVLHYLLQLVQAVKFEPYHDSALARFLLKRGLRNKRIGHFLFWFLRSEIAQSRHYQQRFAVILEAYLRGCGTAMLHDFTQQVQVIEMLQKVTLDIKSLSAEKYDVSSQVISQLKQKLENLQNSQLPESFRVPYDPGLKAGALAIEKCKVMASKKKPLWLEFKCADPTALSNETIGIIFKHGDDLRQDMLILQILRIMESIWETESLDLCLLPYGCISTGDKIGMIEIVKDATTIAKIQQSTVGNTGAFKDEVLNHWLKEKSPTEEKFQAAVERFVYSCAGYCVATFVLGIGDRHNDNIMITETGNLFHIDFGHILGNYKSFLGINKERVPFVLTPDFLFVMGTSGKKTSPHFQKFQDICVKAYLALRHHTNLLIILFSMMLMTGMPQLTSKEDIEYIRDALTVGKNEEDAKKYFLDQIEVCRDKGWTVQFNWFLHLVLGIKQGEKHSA

- inhibition at 10 µM [2]: 39.3 ± 7.29%
- inhibition at 10 µM [3]: 41.4 ± 0.63%
- inhibition at 10 µM [4]: 33.6 ± 3.23%
- inhibition at 10 µM [5]: 40.9 ± 1.19%
- inhibition at 10 µM [6]: 17.7 ± 4.98%
- inhibition at 10 µM [7]: 22.7 ± 9.34%
- inhibition at 10 µM [8]: 16.9 ± 4.99%
- inhibition at 10 µM [9]: -10.5 ± 9.55%
- inhibition at 10 µM [10]: 11.7 ± 0.37%
- inhibition at 10 µM [11]: 11.7 ± 1.62%
- inhibition at 10 µM [12]: 17 ± 3.47%
- inhibition at 10 µM [13]: 3.94 ± 3.24%
- inhibition at 10 µM [14]: -1.54 ± 1.35%
- inhibition at 10 µM [15]: 31.8 ± 1.18%
- inhibition at 10 µM [16]: 28.6 ± 1.96%
- inhibition at 10 µM [17]: -12.2 ± 4.24%
- inhibition at 10 µM [18]: 56.4 ± 4.16%
- inhibition at 10 µM [19]: -1.25 ± 1.53%
- inhibition at 10 µM [20]: 33.8 ± 4.29%
- inhibition at 10 µM [21]: -6.75 ± 8.78%
- inhibition at 10 µM [22]: 61.9 ± 6.43%
- inhibition at 10 µM [23]: 9.84 ± 3.05%
- inhibition at 10 µM [24]: 9.54 ± 0.09%
- inhibition at 10 µM [25]: 3.09 ± 2.31%
Structure (SMILES): Nc1nn2c(nc(N)c3c(N)n[nH]c32)c1/N=N/c1ccccc1 [Compound 17]
- phosphorylation level of 4E-BP1 [1]: suppressed
- phosphorylation level of p70S6K [1]: suppressed

— article PMC4702177, “Discovering new mTOR inhibitors for cancer treatment through virtual screening methods and in vitro assays” (Scientific Reports, 2016)
